# Numbered stars: 1 amine (or outer) side, 2 acyl side, 3 side chain; on linkers, the order of the positions; unused ones are H or OH. Bridge positions count the residues as written; N and C are the ends. Square brackets hold non-standard residues; d marks the D form. Peptide text beside a SMILES is read from it. Trp(βS-Me,7-OMe) = COc1cccc2c([C@H](C)[C@H](N)C(=O)O)c[nH]c12; Ala(1-bicyclo(1.1.1)pentyl) = N[C@@H](CC12CC(C1)C2)C(=O)O; Phe(3-CH2NH2) = O=C([C@H](Cc1cccc(CN[*:3])c1)N[*:1])[*:2]; Phe(4-CH2COOH) = N[C@@H](Cc1ccc(CC(=O)O)cc1)C(=O)O; Trp(4-Cl) = N[C@@H](Cc1c[nH]c2cccc(Cl)c12)C(=O)O; Trp(7-Cl) = N[C@@H](Cc1c[nH]c2c(Cl)cccc12)C(=O)O; Phe(4-CONH2) = NC(=O)c1ccc(C[C@H](N)C(=O)O)cc1; Phe(4-COOH) = N[C@@H](Cc1ccc(C(=O)O)cc1)C(=O)O; Trp(7-aza) = N[C@@H](Cc1c[nH]c2ncccc12)C(=O)O; Phe(4-CH2NH2) = NCc1ccc(C[C@H](N)C(=O)O)cc1; Trp(1-Me) = Cn1cc(C[C@H](N)C(=O)O)c2ccccc21; dPro(cis-4-NH2) = N[C@H]1CN[C@@H](C(=O)O)C1; Pip(5R-OH) = O=C(O)[C@@H]1CC[C@@H](O)CN1; αMeW = C[C@](N)(Cc1c[nH]c2ccccc12)C(=O)O; X1 = O=C([C@@H]1CC[C@H](N[*:1])C1)[*:2]; 1Nal = N[C@@H](Cc1cccc2ccccc12)C(=O)O; 2Nal = N[C@@H](Cc1ccc2ccccc2c1)C(=O)O; N(CH2CH2COOH)Gly = O=C(O)CCNCC(=O)O; Pip(4-aza) = O=C(O)[C@@H]1CNCCN1; hPhe = N[C@@H](CCc1ccccc1)C(=O)O; 3Pal = N[C@@H](Cc1cccnc1)C(=O)O; 4Pal = N[C@@H](Cc1ccncc1)C(=O)O; NMeE = CN[C@@H](CCC(=O)O)C(=O)O; NMeN = CN[C@@H](CC(N)=O)C(=O)O; NMeDab = CN[C@@H](CCN)C(=O)O; Dap(Me) = CNC[C@H](N)C(=O)O; NEtAla = CCN[C@@H](C)C(=O)O; Pip = O=C(O)[C@@H]1CCCCN1; αMeS = C[C@](N)(CO)C(=O)O; NMeA = CN[C@@H](C)C(=O)O; Nle = CCCC[C@H](N)C(=O)O; Dap = NC[C@H](N)C(=O)O; Sar = CNCC(=O)O
# Target: T1, TNFα-induced NF-κB signal transduction pathway (TNFR1 signaling) in THP-1 cells (Homo sapiens, UniProt P19438)
# T1 sequence (P19438 30-455): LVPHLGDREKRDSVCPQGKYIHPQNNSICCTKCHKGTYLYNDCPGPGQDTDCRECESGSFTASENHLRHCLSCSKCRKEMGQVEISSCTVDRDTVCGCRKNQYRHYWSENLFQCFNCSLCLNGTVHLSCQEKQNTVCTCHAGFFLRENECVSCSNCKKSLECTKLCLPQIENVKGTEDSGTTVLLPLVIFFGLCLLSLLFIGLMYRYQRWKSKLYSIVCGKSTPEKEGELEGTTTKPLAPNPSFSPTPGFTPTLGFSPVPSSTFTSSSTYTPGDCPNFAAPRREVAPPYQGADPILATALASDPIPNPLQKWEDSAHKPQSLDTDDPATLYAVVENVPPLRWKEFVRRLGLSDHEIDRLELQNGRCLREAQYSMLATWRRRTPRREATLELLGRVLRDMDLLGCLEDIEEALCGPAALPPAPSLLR
# Experiment: THP-1 Lucia NF-κB reporter cell assay, inhibition of TNFα-induced NF-κB signaling
# Assay type: cell-based
# Conditions: THP-1 NF-κB Lucia reporter cells, 10 ng/mL TNFα, 16-18 h, secreted luciferase; read-out: THP-1 IC50
# Summary of the method: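 Read-out: secreted Lucia luciferase luminescence (QUANTI-Luc) from supernatant after 16-18 h, 37 °C, 10 ng/mL rhTNFα. Peptide pretreatment 1 h at 37 °C; 20,000 cells/well, selection antibiotics omitted. IC50 via 4-parameter logistic model against min/max controls.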
row,SMILES,IC50 [nM]
1,"CCCC[C@@H]1NC(=O)CSC[C@@H](C(N)=O)NC(=O)[C@H]([C@@H](C)c2c[nH]c3c(OC)cccc23)NC(=O)CN(C)C(=O)[C@H](Cc2ccc(O)cc2)NC(=O)[C@H](Cc2ccc(C(N)=O)cc2)NC(=O)[C@](C)(CO)NC(=O)[C@H](Cc2c[nH]c3c(Cl)cccc23)NC(=O)[C@H](Cc2ccncc2)NC(=O)[C@H](CC(N)=O)NC(=O)[C@H]2C[C@@H](N)CN2C(=O)[C@H](Cc2c[nH]c3ncccc23)NC(=O)[C@@H]2CNCCN2C(=O)[C@H](Cc2ccncc2)NC1=O [SEQ ID NO. 219] ({CH2CO}-[Nle][4Pal][Pip(4-aza)][Trp(7-aza)][dPro(cis-4-NH2)]N[4Pal][Trp(7-Cl)][αMeS][Phe(4-CONH2)]Y[Sar][Trp(βS-Me,7-OMe)]C-NH2; thioether N-14)",1.6
2,"CCCC[C@@H]1NC(=O)CSC[C@@H](C(N)=O)NC(=O)[C@H]([C@@H](C)c2c[nH]c3c(OC)cccc23)NC(=O)CN(C)C(=O)[C@H](Cc2ccc(O)cc2)NC(=O)[C@H](Cc2ccc(C(=O)O)cc2)NC(=O)[C@](C)(CO)NC(=O)[C@H](Cc2c[nH]c3c(Cl)cccc23)NC(=O)[C@H](Cc2ccncc2)NC(=O)[C@H](CC(N)=O)NC(=O)CN(CCC(=O)O)C(=O)[C@H](Cc2c[nH]c3ncccc23)NC(=O)[C@@H]2CCCCN2C(=O)[C@H](Cc2ccncc2)NC1=O [SEQ ID NO. 220] ({CH2CO}-[Nle][4Pal][Pip][Trp(7-aza)][N(CH2CH2COOH)Gly]N[4Pal][Trp(7-Cl)][αMeS][Phe(4-COOH)]Y[Sar][Trp(βS-Me,7-OMe)]C-NH2; thioether N-14)",2.9
3,CN1CC(=O)N[C@@H](Cc2c[nH]c3cccc(Cl)c23)C(=O)N[C@H](C(N)=O)CSCC(=O)N[C@@H](CC23CC(C2)C3)C(=O)N[C@@H](Cc2cccc(CN)c2)C(=O)N[C@@H](CO)C(=O)N[C@@H](Cc2c[nH]c3c(Cl)cccc23)C(=O)N2CCC[C@@H]2C(=O)N(C)[C@@H](CC(N)=O)C(=O)N[C@@H](Cc2ccc(C(=O)O)cc2)C(=O)N[C@@H](Cc2c[nH]c3c(Cl)cccc23)C(=O)N[C@@](C)(CO)C(=O)N[C@@H](Cc2ccc(C(=O)O)cc2)C(=O)N[C@@H](Cc2cccc(CN)c2)C1=O [SEQ ID NO. 222] ({CH2CO}-[Ala(1-bicyclo(1.1.1)pentyl)][Phe(3-CH2NH2)]S[Trp(7-Cl)][dP][NMeN][Phe(4-COOH)][Trp(7-Cl)][αMeS][Phe(4-COOH)][Phe(3-CH2NH2)][Sar][Trp(4-Cl)]C-NH2; thioether N-14),5.7
4,CCCC[C@@H]1NC(=O)CSC[C@@H](C(N)=O)NC(=O)[C@H](Cc2cn(C)c3ccccc23)NC(=O)CN(C)C(=O)[C@H](Cc2ccc(O)cc2)NC(=O)[C@H](Cc2ccc(C(=O)O)cc2)NC(=O)[C@](C)(CO)NC(=O)[C@H](Cc2c[nH]c3c(Cl)cccc23)NC(=O)[C@H](Cc2ccncc2)NC(=O)[C@H](CC(N)=O)NC(=O)[C@H](CCC(=O)O)N(C)C(=O)[C@H](Cc2c[nH]c3ncccc23)NC(=O)[C@H](CO)NC(=O)[C@H](Cc2ccncc2)NC1=O [SEQ ID NO. 223] ({CH2CO}-[Nle][4Pal]S[Trp(7-aza)][NMeE]N[4Pal][Trp(7-Cl)][αMeS][Phe(4-COOH)]Y[Sar][Trp(1-Me)]C-NH2; thioether N-14),2.9
5,CCCC[C@@H]1NC(=O)CSC[C@@H](C(N)=O)NC(=O)[C@](C)(Cc2c[nH]c3ccccc23)NC(=O)CN(C)C(=O)[C@H](Cc2ccc(O)cc2)NC(=O)[C@H](Cc2ccc(CC(=O)O)cc2)NC(=O)[C@](C)(CO)NC(=O)[C@H](Cc2c[nH]c3c(Cl)cccc23)NC(=O)[C@H](Cc2ccncc2)NC(=O)[C@H](CC(N)=O)NC(=O)[C@H](CCC(=O)O)N(C)C(=O)[C@H](Cc2c[nH]c3ncccc23)NC(=O)[C@H](CO)NC(=O)[C@H](Cc2ccc(CN)cc2)NC1=O [SEQ ID NO. 224] ({CH2CO}-[Nle][Phe(4-CH2NH2)]S[Trp(7-aza)][NMeE]N[4Pal][Trp(7-Cl)][αMeS][Phe(4-CH2COOH)]Y[Sar][αMeW]C-NH2; thioether N-14),4.8
6,C[C@H]1C(=O)N[C@@H](CC(N)=O)C(=O)N[C@@H](Cc2ccncc2)C(=O)N[C@@H](Cc2ccc3ccccc3c2)C(=O)N[C@@](C)(CO)C(=O)N[C@@H](Cc2ccc(C(=O)O)cc2)C(=O)N[C@@H](Cc2ccc(O)cc2)C(=O)N(C)CC(=O)N[C@@H](Cc2c[nH]c3ccccc23)C(=O)N[C@H](C(N)=O)CSCC(=O)N[C@@H](CCCCN)C(=O)N[C@@H](Cc2ccncc2)C(=O)N[C@@H](CO)C(=O)N[C@@H](Cc2cccc3ccccc23)C(=O)N1C [SEQ ID NO. 227] ({CH2CO}-K[4Pal]S[1Nal][NMeA]N[4Pal][2Nal][αMeS][Phe(4-COOH)]Y[Sar]WC-NH2; thioether N-14),13.5
7,"CCCC[C@@H]1NC(=O)[C@@H]2CC[C@@H](C2)NC(=O)[C@H]([C@@H](C)c2c[nH]c3c(OC)cccc23)NC(=O)CN(C)C(=O)[C@H](Cc2ccc(C(N)=O)cc2)NC(=O)[C@H](Cc2ccc(C(N)=O)cc2)NC(=O)[C@](C)(CO)NC(=O)[C@H](Cc2c[nH]c3c(Cl)cccc23)NC(=O)[C@H](Cc2ccncc2)NC(=O)[C@H](CC(N)=O)NC(=O)[C@H](CCC(=O)O)N(C)C(=O)[C@H](Cc2c[nH]c3ccccc23)NC(=O)[C@@H]2CC[C@@H](O)CN2C(=O)[C@H](Cc2ccncc2)NC1=O [SEQ ID NO. 229] (cyclo([4Pal][Trp(7-Cl)][αMeS][Phe(4-CONH2)][Phe(4-CONH2)][Sar][Trp(βS-Me,7-OMe)][X1][Nle][4Pal][Pip(5R-OH)]W[NMeE]N))",0.5
8,CCCC[C@@H]1NC(=O)CSC[C@@H](C(N)=O)NC(=O)[C@](C)(Cc2c[nH]c3ccccc23)NC(=O)CN(C)C(=O)[C@H](Cc2ccc(O)cc2)NC(=O)[C@H](Cc2ccc(C(=O)O)cc2)NC(=O)[C@](C)(CO)NC(=O)[C@H](Cc2c[nH]c3c(Cl)cccc23)NC(=O)[C@H](Cc2ccncc2)NC(=O)[C@H](CC(N)=O)NC(=O)[C@H](CCC(=O)O)N(C)C(=O)[C@H](Cc2c[nH]c3ncccc23)NC(=O)[C@H](CCN)N(C)C(=O)[C@H](Cc2ccncc2)NC1=O [SEQ ID NO. 231] ({CH2CO}-[Nle][4Pal][NMeDab][Trp(7-aza)][NMeE]N[4Pal][Trp(7-Cl)][αMeS][Phe(4-COOH)]Y[Sar][αMeW]C-NH2; thioether N-14),6.1
9,CCN1C(=O)[C@H](Cc2c[nH]c3c(Cl)cccc23)NC(=O)[C@H](CO)NC(=O)[C@H](Cc2ccncc2)NC(=O)[C@H](CC23CC(C2)C3)NC(=O)CSC[C@@H](C(N)=O)NC(=O)[C@H](Cc2c[nH]c3ncccc23)NC(=O)CN(C)C(=O)[C@H](Cc2ccc(O)cc2)NC(=O)[C@H](Cc2ccc(C(=O)O)cc2)NC(=O)[C@](C)(CO)NC(=O)[C@H](Cc2c[nH]c3ncccc23)NC(=O)[C@H](Cc2ccc(C(=O)O)cc2)NC(=O)[C@H](CC(N)=O)NC(=O)[C@@H]1C [SEQ ID NO. 232] ({CH2CO}-[Ala(1-bicyclo(1.1.1)pentyl)][4Pal]S[Trp(7-Cl)][NEtAla]N[Phe(4-COOH)][Trp(7-aza)][αMeS][Phe(4-COOH)]Y[Sar][Trp(7-aza)]C-NH2; thioether N-14),6.3
10,CN1CC(=O)N[C@@H](Cc2c[nH]c3ccccc23)C(=O)N[C@H](C(N)=O)CSCC(=O)N[C@@H](CCc2ccccc2)C(=O)N[C@@H](Cc2ccncc2)C(=O)N[C@@H](CN)C(=O)N[C@@H](Cc2c[nH]c3ccccc23)C(=O)N2CCC[C@@H]2C(=O)N[C@@H](CC(N)=O)C(=O)N[C@@H](Cc2ccncc2)C(=O)N[C@@H](Cc2ccc3ccccc3c2)C(=O)N[C@@](C)(CO)C(=O)N[C@@H](Cc2ccc(C(=O)O)cc2)C(=O)N[C@@H](Cc2cccnc2)C1=O [SEQ ID NO. 233] ({CH2CO}-[hPhe][4Pal][Dap]W[dP]N[4Pal][2Nal][αMeS][Phe(4-COOH)][3Pal][Sar]WC-NH2; thioether N-14),14.2
11,CCCC[C@@H]1NC(=O)CSC[C@@H](C(N)=O)NC(=O)[C@](C)(Cc2c[nH]c3ccccc23)NC(=O)CN(C)C(=O)[C@H](Cc2ccc(O)cc2)NC(=O)[C@H](Cc2ccc(C(=O)O)cc2)NC(=O)[C@](C)(CO)NC(=O)[C@H](Cc2c[nH]c3c(Cl)cccc23)NC(=O)[C@H](Cc2ccncc2)NC(=O)[C@H](CC(N)=O)NC(=O)[C@H](CCC(=O)O)N(C)C(=O)[C@H](Cc2c[nH]c3ncccc23)NC(=O)[C@H](CNC)NC(=O)[C@H](Cc2ccncc2)NC1=O [SEQ ID NO. 235] ({CH2CO}-[Nle][4Pal][Dap(Me)][Trp(7-aza)][NMeE]N[4Pal][Trp(7-Cl)][αMeS][Phe(4-COOH)]Y[Sar][αMeW]C-NH2; thioether N-14),5
12,CN1CC(=O)N[C@@H](Cc2c[nH]c3cccc(Cl)c23)C(=O)N[C@H](C(N)=O)CSCC(=O)N[C@@H](CCC(N)=O)C(=O)N[C@@H](Cc2ccncc2)C(=O)N[C@@H](CO)C(=O)N[C@@H](Cc2c[nH]c3ncccc23)C(=O)N(C)[C@@H](CCC(=O)O)C(=O)N[C@@H](CC(N)=O)C(=O)N[C@@H](Cc2ccncc2)C(=O)N[C@@H](Cc2c[nH]c3c(Cl)cccc23)C(=O)N[C@@](C)(CO)C(=O)N[C@@H](Cc2ccc(C(=O)O)cc2)C(=O)N[C@@H](Cc2ccc(O)cc2)C1=O [SEQ ID NO. 239] ({CH2CO}-Q[4Pal]S[Trp(7-aza)][NMeE]N[4Pal][Trp(7-Cl)][αMeS][Phe(4-COOH)]Y[Sar][Trp(4-Cl)]C-NH2; thioether N-14),1.4

# From US20240287138A1, “CYCLIC PEPTIDES FOR INHIBITING TNF RECEPTOR 1 ACTIVITY” (Merck Sharp & Dohme LLC, priority 2023, published 2024)
